Measured values: patent US20180280372A1, “COMPOSITIONS AND METHODS FOR INHIBITING AUTOPHAGY AND CONTRACEPTION” (Washington University, priority 2016, published 2018)
“Also recorded” adds a separate entry of the source. Structures can show the parent of a compound that is named as a salt.

Assays:
CDK1 = CDK1 (Homo sapiens, UniProt P06493); settings: cited from earlier work
autophagy = assay: C. elegans-based high-throughput screen for autophagic inhibitors; assay type: in vivo; settings: LOPAC1280 library, validated hits
Description: A C. elegans-based high-throughput screen was performed to identify novel autophagic inhibitors using the LOPAC^1280 library of 1280 pharmacologically active compounds from Sigma. Using this high-content screen, 27 initial hits were identified.

HDAC = settings: cited from earlier work
[1] = aqueous solutions or plasma / solution; cited from earlier work
Bcl-2 = Bcl-2 (Homo sapiens, UniProt P10415); settings: cited from earlier work
[2] = target: deubiquitinylating enzymes (DUBs); settings: cited from earlier work
mTOR = mTOR (Homo sapiens, UniProt P42345); settings: cited from earlier work
Aurora C = target: T1, Aurora C (Homo sapiens, UniProt Q9UQB9); settings: cited from earlier work
T1 sequence (Q9UQB9 1-309): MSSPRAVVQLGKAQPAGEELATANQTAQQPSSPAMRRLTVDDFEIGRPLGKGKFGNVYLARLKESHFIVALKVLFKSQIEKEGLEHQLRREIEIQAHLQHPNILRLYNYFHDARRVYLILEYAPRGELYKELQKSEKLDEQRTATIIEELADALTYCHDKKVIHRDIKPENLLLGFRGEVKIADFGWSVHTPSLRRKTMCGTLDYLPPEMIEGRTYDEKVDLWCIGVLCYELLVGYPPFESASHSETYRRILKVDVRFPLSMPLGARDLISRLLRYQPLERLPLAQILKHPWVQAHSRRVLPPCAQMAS

SIRT1 = SIRT1 (Homo sapiens, UniProt Q96EB6); settings: SIRT1 vs SIRT2 and SIRT3; cited from earlier work
primary hESC cells = assay: Decidualization of primary hESC cells; assay type: cell-based, human
hESC-t cells = assay: Decidualization of immortalized human ESCs (hESC-t); assay type: cell-based
ATM = ATM (Homo sapiens, UniProt Q13315); settings: cited from earlier work
PI3K = settings: cited from earlier work
Aurora B = Aurora B (Homo sapiens, UniProt Q96GD4); settings: cited from earlier work
calcium channel = settings: cited from earlier work
Aurora A = Aurora A (Homo sapiens, UniProt O14965); settings: cited from earlier work
parasite growth = settings: cited from earlier work
[3] = system: TNFα-induced IκBα phosphorylation; settings: cited from earlier work
p110γ (PI3Kγ) = p110γ (PI3Kγ) (Homo sapiens, UniProt P48736); settings: cited from earlier work
p110β (PI3Kβ) = p110β (PI3Kβ) (Homo sapiens, UniProt P42338); settings: cited from earlier work
p110α (PI3Kα) = p110α (PI3Kα) (Homo sapiens, UniProt P42336); settings: cited from earlier work
20S proteasome = settings: cited from earlier work
HCT 116 cells = settings: cited from earlier work
cAMP production = settings: cited from earlier work
HDAC2 = settings: cited from earlier work
HDAC10 = HDAC10 (Homo sapiens, UniProt Q969S8); settings: cited from earlier work
sodium channel = settings: rat brain synaptosomes; cited from earlier work
proteasome = settings: cited from earlier work
α2 adrenergic = settings: in vivo; cited from earlier work

Sequence of Aurora A (O14965 whole entry): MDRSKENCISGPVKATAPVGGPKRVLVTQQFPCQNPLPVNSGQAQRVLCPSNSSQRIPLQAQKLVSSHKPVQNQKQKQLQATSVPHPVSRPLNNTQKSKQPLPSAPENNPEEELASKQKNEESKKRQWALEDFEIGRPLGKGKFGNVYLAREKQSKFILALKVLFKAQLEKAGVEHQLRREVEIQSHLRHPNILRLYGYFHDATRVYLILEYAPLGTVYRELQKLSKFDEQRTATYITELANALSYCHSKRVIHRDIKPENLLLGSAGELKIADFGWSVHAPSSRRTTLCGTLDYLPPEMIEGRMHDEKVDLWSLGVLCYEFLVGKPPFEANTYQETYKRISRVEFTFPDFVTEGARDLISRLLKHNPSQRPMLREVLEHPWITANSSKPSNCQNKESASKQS
Sequence of Aurora B (Q96GD4 whole entry): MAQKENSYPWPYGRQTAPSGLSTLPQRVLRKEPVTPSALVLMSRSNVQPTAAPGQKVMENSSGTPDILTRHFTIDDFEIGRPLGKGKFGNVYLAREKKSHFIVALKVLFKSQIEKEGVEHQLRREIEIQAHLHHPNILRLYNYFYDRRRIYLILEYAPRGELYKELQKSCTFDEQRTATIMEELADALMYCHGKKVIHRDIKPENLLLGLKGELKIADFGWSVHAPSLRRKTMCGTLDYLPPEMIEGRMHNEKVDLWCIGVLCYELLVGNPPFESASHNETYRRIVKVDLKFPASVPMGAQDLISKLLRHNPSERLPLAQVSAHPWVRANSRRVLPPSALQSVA
Sequence of Bcl-2 (P10415 whole entry, species assumed): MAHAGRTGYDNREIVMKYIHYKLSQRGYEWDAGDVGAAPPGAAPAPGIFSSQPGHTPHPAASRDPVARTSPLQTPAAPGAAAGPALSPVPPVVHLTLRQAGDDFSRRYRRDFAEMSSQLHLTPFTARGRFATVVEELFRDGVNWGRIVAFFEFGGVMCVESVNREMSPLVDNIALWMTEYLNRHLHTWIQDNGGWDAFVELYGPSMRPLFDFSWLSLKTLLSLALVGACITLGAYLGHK
Sequence of p110γ (PI3Kγ) (P48736 whole entry, species assumed): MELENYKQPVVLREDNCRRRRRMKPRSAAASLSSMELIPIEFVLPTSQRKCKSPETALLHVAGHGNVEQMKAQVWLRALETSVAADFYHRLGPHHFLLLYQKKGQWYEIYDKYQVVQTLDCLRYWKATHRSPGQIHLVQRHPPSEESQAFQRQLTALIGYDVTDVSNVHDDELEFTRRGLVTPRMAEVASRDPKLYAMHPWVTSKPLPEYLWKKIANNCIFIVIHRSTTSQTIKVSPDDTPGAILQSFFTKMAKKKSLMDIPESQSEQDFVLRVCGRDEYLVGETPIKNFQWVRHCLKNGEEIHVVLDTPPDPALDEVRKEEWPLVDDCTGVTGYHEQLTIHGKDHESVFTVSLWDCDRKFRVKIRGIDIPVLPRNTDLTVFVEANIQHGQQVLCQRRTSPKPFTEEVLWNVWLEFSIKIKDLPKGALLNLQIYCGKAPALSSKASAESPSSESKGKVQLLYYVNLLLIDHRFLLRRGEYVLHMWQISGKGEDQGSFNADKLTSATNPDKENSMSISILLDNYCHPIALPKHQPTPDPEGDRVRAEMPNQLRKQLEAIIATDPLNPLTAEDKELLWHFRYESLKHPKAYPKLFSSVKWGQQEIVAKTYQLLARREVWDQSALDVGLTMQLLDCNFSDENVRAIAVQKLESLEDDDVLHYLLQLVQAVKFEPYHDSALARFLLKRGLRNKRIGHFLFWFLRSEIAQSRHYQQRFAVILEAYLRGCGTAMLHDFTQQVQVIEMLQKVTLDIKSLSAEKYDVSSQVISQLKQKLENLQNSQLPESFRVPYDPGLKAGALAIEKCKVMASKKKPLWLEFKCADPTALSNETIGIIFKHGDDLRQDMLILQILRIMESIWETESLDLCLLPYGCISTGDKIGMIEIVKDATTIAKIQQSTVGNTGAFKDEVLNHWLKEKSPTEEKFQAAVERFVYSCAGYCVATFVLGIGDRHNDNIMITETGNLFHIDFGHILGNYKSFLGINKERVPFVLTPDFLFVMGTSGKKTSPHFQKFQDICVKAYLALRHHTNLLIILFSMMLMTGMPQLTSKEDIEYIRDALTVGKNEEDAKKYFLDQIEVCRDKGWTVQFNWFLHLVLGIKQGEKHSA
Sequence of SIRT1 (Q96EB6 whole entry, species assumed): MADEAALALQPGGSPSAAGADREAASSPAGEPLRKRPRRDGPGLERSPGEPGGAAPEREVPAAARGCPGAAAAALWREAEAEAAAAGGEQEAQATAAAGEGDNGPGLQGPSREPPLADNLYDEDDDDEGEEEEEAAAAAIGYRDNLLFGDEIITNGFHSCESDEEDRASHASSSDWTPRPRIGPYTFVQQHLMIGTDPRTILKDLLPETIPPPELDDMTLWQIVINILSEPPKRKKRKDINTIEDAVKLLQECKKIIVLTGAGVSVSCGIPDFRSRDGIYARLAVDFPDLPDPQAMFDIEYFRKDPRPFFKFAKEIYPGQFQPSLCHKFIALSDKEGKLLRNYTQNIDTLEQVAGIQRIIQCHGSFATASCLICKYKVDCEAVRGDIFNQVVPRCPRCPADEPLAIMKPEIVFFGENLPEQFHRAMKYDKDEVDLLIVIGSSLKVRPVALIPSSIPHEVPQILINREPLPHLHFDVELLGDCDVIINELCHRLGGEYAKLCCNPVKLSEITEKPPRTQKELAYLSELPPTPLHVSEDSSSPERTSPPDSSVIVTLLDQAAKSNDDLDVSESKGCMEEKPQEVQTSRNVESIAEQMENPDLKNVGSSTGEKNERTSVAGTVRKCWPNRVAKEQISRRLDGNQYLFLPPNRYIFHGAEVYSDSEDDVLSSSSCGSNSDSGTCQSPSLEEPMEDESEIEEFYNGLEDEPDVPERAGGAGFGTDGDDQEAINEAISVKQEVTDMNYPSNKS
Sequence of HDAC10 (Q969S8 whole entry): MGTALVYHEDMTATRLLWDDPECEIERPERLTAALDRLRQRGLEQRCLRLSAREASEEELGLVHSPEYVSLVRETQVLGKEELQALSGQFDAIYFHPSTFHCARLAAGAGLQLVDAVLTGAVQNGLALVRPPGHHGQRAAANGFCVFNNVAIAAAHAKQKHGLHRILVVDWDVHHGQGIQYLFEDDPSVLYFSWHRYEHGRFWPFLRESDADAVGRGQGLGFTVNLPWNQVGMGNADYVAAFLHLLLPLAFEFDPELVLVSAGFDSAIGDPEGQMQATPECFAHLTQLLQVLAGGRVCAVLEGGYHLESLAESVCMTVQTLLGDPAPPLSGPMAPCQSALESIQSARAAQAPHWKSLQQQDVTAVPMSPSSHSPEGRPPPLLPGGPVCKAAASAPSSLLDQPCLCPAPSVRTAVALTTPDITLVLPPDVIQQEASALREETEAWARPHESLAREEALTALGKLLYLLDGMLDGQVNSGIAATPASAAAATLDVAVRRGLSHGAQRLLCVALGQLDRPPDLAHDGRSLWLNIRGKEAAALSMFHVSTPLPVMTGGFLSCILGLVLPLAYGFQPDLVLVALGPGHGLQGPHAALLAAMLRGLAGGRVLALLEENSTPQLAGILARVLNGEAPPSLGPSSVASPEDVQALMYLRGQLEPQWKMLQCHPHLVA
Sequence of CDK1 (P06493 whole entry, species assumed): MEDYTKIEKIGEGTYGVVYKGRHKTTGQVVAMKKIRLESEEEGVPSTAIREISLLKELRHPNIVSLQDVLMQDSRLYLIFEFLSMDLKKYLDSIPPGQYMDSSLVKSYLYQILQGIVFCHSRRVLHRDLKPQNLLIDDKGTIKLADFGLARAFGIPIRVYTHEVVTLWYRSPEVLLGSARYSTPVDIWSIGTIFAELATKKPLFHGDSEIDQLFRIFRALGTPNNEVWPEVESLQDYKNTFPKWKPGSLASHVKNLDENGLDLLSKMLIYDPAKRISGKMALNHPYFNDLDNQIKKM
Sequence of CDK1 (P14635 whole entry partner, species assumed): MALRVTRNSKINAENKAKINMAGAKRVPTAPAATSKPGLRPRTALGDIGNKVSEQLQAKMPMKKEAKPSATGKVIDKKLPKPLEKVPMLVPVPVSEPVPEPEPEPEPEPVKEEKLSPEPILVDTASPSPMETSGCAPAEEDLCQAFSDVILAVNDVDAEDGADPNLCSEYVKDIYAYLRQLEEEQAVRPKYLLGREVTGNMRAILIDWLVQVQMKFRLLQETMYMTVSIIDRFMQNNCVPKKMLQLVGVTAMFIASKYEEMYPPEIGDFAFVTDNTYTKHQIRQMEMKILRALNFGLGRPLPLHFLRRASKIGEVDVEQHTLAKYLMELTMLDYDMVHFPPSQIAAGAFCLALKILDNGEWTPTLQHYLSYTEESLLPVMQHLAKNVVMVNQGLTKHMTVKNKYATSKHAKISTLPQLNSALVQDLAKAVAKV

Nc1nc(Nc2ccc(S(N)(=O)=O)cc2)nn1C(=O)c1c(F)cccc1F [JNJ-7706621]
IC50 (CDK1): 9 nM

Cl.OC1CCCCC1N1CCC(c2ccccc2)CC1 (stereo not drawn) [L(−)-vesamicol hydrochloride]
identified as autophagy inhibitor in C. elegans screen (autophagy): novel autophagy inhibitors

O=C(/C=C/c1ccc(CN(CCO)CCc2c[nH]c3ccccc23)cc1)NO [LAQ824]
IC50 (HDAC): 32 nM

O=c1cc(N2CCOCC2)oc2c(-c3ccccc3)cccc12 [LY294002]
stability in solution [1]: more stable in solution than Wortmannin

COC1=CC(c2cc3ccccc3[nH]2)=N/C1=C\c1[nH]c(C)cc1C [Obatoclax Mesylate]
Ki (Bcl-2): 220 nM

N#CSc1cc(SC#N)c(N)nc1N [PR-619]
EC50 [2]: 1000 to 20000 nM

CO[C@H]1C[C@@H]2CC[C@@H](C)[C@@](O)(O2)C(=O)C(=O)N2CCCC[C@H]2C(=O)O[C@H]([C@H](C)C[C@@H]2CC[C@@H](OP(C)(C)=O)[C@H](OC)C2)CC(=O)[C@H](C)/C=C(\C)[C@@H](O)[C@@H](OC)C(=O)[C@H](C)C[C@H](C)/C=C/C=C/C=C/1C [Ridaforolimus]
IC50 (mTOR): 0.2 nM

O=C(Nc1cccc(Cl)c1)Nc1ncc(CCNc2ncnc3ccsc23)s1 [SNS-314 Mesylate]
IC50 (Aurora C): 3 nM

Cl.O=C(Nc1ccccc1-c1cn2c(CN3CCNCC3)csc2n1)c1cnc2ccccc2n1 [SRT1720]
less potent for SIRT2 and SIRT3 (SIRT1): > 230 fold

CC(/C=C/C(=O)NO)=C\[C@@H](C)C(=O)c1ccc(N(C)C)cc1 [Trichostatin A]
IC50 (HDAC): ~1.8 nM

CNC(=O)c1ccccc1Oc1nc(Nc2cc(OC)c(OC)c(OC)c2)ncc1Br [Ulk inhibitor]
decidualization of primary hESC cells (primary hESC cells): inhibit decidualization | decidualization of immortalized human ESCs (hESC-t) (hESC-t cells): inhibit decidualization

CCCC(CCC)C(=O)O [Valproic acid sodium salt]
IC50 (HDAC): 400000 nM

COC[C@H]1OC(=O)c2coc3c2[C@@]1(C)C1=C(C3=O)[C@@H]2CCC(=O)[C@@]2(C)C[C@H]1OC(C)=O [Wortmannin]
IC50 (ATM): 150 nM | IC50 (PI3K): […]

COc1cc(C(=O)NS(=O)(=O)c2ccccc2C)ccc1Cc1cn(C)c2ccc(NC(=O)OC3CCCC3)cc12 [Zafirlukast]
identified as autophagy inhibitor in C. elegans screen (autophagy): novel autophagy inhibitors | decidualization of primary hESC cells (primary hESC cells): inhibit decidualization; also recorded: decidualization is impaired | decidualization of immortalized human ESCs (hESC-t) (hESC-t cells): inhibit decidualization; also recorded: decidualization is impaired

O=C(Nc1ccc([N+](=O)[O-])cc1Cl)c1cc(Cl)ccc1O [niclosamide]
identified as autophagy inhibitor in C. elegans screen (autophagy): novel autophagy inhibitors

AMG-900
IC50 (Aurora B): 4 nM | IC50 (Aurora C): 1 nM

AR-42
IC50 (HDAC): 30 nM

Amlodipine
IC50 (calcium channel): 1.9 nM

Aurora A Inhibitor I
selective for Aurora A than Aurora B (Aurora A; Aurora A vs Aurora B): 1000 fold | IC50 (Aurora A): 3.4 nM

Azithromycin
IC50 (parasite growth): 8400 nM

BAY 11-7082
IC50 [3]: 10000 nM

BGT226
IC50 (p110γ (PI3Kγ)): 38 nM | IC50 (p110β (PI3Kβ)): 63 nM | IC50 (p110α (PI3Kα)): 4 nM

Bortezomib
Ki (20S proteasome): 0.6 nM

Brefeldin A
IC50 (HCT 116 cells): 200 nM

Bupivacaine HCl
IC50 (cAMP production): 2300 nM

CCT137690
IC50 (Aurora B): 25 nM | IC50 (Aurora C): 19 nM

CUDC-907
IC50 (HDAC2): 5 nM | IC50 (HDAC10): 2.8 nM

Carbamazepine
IC50 (sodium channel): 131000 nM

Carfilzomib
IC50 (proteasome): < 5 nM

Clonidine HCl
ED50 (α2 adrenergic agonist) (α2 adrenergic): Clonidine hydrochloride(Catapres) is a direct-acting α2 adrenergic agonist with an ED50 of 0.02 ± 0.01 mg/kg.
